Paper PMC5514153, “Targeting PTPRZ inhibits stem cell-like properties and tumorigenicity in glioblastoma cells” (Scientific Reports, 2017)

Key:
[1] = molecular target: T1, PTPRZ1 V1911F (Homo sapiens, UniProt P23471, V1911F); test: Inhibitor sensitivity of point mutant PTPRZ1 V1911F; type: biochemical; conditions: 10 µM, vs wild-type PTPRZ1
T1 construct: Point mutants of the PTPRZ1-ICR, PTPRG-ICR, and PTPN1 catalytic domain were generated; GST (N); made in house
Source text: (§1) Figure 5 Structural basis for PTPRZ inhibition of NAZ2329. (A) An enlarged view of the X-ray structure of human PTPRZ1-D1 complexed with NAZ2329 (PDB ID: 5H08) (left), X-ray structure of the apo (open) form of PTPRZ1-D1 (PDB ID: 5AWX, ref. [6], middle) and a computer-modeled structure of the closed form of PTPRZ1-D1 complexed with a competitive inhibitor, SCB4380 (ref. [6], right), are shown. PTPRZ1-D1 is shown as a gray surface representation, in which Cys1933 at the active site and Val-1911 at the bottom of the allosteric pocket are indicated in red and yellow, respectively. Inhibitors are colored according to the atomic species in a stick figure representation as follows: oxygen (red), nitrogen (blue), sulfur (yellow), and carbon (green). The bottom figures show the conformation of the WPD loop (orange) as cartoon representations, in which Asp1901 and Cys1933 are indicated by orange and red spheres, respectively. Side chains of Arg1939 at the active site, Met1902 in the WPD loop, and Val-1911 at the bottom of the allosteric binding area are also shown in the stick representation. (B) LigPlot representation of the NAZ2329 interaction with PTPRZ1-D1. The predicted hydrogen bonds (broken black lines) and residues (red spoked arcs) involved in the hydrophobic interaction are shown. […]

[2] = tested on: PTPN1 F191V; test: Inhibitor sensitivity of point mutant PTPN1 F191V; type: biochemical, human; conditions: at 10 µM
Source text: as §1

[3] = tested on: PTPRZ1 M1902F, M1902H; test: Inhibitor sensitivity of point mutants PTPRZ1 M1902F and M1902H; type: biochemical, human; conditions: 10 µM, vs wild-type PTPRZ1
Source text: as §1

T1 sequence (P23471 1663-2315 V1911F limits assumed): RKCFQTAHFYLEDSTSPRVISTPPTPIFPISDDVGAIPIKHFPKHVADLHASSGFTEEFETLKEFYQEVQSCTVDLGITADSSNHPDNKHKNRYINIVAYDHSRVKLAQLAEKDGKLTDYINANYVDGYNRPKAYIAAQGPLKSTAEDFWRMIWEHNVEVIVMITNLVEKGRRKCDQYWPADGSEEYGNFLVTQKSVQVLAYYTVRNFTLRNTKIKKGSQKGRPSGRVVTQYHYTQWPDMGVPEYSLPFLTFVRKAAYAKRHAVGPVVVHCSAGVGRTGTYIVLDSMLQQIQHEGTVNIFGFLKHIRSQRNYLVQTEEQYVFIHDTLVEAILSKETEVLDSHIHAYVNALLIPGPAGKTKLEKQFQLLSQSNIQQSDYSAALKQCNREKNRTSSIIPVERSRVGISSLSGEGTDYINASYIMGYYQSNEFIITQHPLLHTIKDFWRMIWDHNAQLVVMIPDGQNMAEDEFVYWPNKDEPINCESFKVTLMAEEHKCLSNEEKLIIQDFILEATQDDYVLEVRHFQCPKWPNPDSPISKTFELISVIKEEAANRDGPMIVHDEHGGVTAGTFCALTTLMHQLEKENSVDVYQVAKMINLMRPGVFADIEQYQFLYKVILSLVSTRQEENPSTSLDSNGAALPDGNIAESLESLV

effect of V1911F substitution on sensitivity to inhibitor [1]: markedly reduced the sensitivity
Compound: CCOc1ccc(C(F)(F)F)cc1CSc1ccsc1C(=O)NS(=O)(=O)c1ccccc1 [NAZ2329]
change in sensitivity of F191V mutant vs wild-type PTPN1 (more sensitive) [2]: ~ 2 fold
effect of M1902F / M1902H substitution on sensitivity to inhibitor [3]: did not affect the sensitivity to the inhibitor
